Assay results: the NIST ThermoML archive (doi:10.1021/je800242n)
“And” between values parts separate entries of the source, which are not always exact repeats. Equal values may be shown once. Numbers after ± are expanded uncertainties.

Settings: Crystal

[F][Cd][F] [cadmium difluoride]
vapor or sublimation pressure (962 K): 1.26e-05 ± 1.4e-06 kPa
vapor or sublimation pressure (968 K): 1.35e-05 ± 1.8e-06 kPa
vapor or sublimation pressure (973 K): 1.58e-05 ± 4.9e-06 kPa
vapor or sublimation pressure (977 K): 2e-05 ± 3.7e-06 kPa
vapor or sublimation pressure (978 K): 2.51e-05 ± 4.5e-06 kPa
vapor or sublimation pressure (983 K): 2.51e-05 ± 4.3e-06 kPa
vapor or sublimation pressure (984 K): 2.69e-05 ± 3.7e-06 kPa
vapor or sublimation pressure (988 K): 3.39e-05 ± 5.1e-06 kPa
vapor or sublimation pressure (992 K): 3.39e-05 ± 6.7e-06 kPa
vapor or sublimation pressure (993 K): 3.47e-05 ± 6.6e-06 kPa
vapor or sublimation pressure (1000 K): 5.01e-05 ± 9.6e-06 kPa
vapor or sublimation pressure (1001 K): 4.68e-05 ± 9.5e-06 kPa
vapor or sublimation pressure (1002 K): 4.57e-05 ± 9.3e-06 kPa
vapor or sublimation pressure (1003 K): 5.75e-05 ± 1e-05 kPa
vapor or sublimation pressure (1004 K): 5.01e-05 ± 9.3e-06 kPa
vapor or sublimation pressure (1009 K): 6.76e-05 ± 7.4e-06 kPa
vapor or sublimation pressure (1012 K): 7.94e-05 ± 8.7e-06 kPa
vapor or sublimation pressure (1013 K): 6.92e-05 ± 1.2e-05 kPa and 6.76e-05 ± 1.2e-05 kPa and 7.59e-05 ± 1.3e-05 kPa
vapor or sublimation pressure (1014 K): 5.75e-05 ± 1.4e-05 kPa
vapor or sublimation pressure (1016 K): 6.76e-05 ± 1.3e-05 kPa
vapor or sublimation pressure (1017 K): 5.75e-05 ± 6.5e-06 kPa and 9.12e-05 ± 9.6e-06 kPa
vapor or sublimation pressure (1018 K): 8.51e-05 ± 8.6e-06 kPa
vapor or sublimation pressure (1021 K): 0.000102 ± 1.1e-05 kPa
vapor or sublimation pressure (1022 K): 8.71e-05 ± 1.6e-05 kPa and 0.000115 ± 1.8e-05 kPa
vapor or sublimation pressure (1025 K): 6.76e-05 ± 1.4e-05 kPa and 0.000107 ± 1.7e-05 kPa
vapor or sublimation pressure (1026 K): 7.94e-05 ± 1.5e-05 kPa
vapor or sublimation pressure (1027 K): 9.12e-05 ± 9.3e-06 kPa
vapor or sublimation pressure (1028 K): 0.000117 ± 1.2e-05 kPa
vapor or sublimation pressure (1030 K): 0.000126 ± 1.7e-05 kPa
vapor or sublimation pressure (1031 K): 0.000135 ± 1.6e-05 kPa
vapor or sublimation pressure (1032 K): 9.12e-05 ± 1.3e-05 kPa and 0.000102 ± 1.3e-05 kPa and 0.00012 ± 1.5e-05 kPa
vapor or sublimation pressure (1033 K): 9.12e-05 ± 9.2e-06 kPa and 0.000158 ± 1.6e-05 kPa
vapor or sublimation pressure (1036 K): 0.000102 ± 1.5e-05 kPa
vapor or sublimation pressure (1038 K): 0.000115 ± 2.1e-05 kPa and 0.000162 ± 2.4e-05 kPa
vapor or sublimation pressure (1040 K): 0.000135 ± 2e-05 kPa and 0.000186 ± 2.4e-05 kPa
vapor or sublimation pressure (1042 K): 0.000162 ± 2.5e-05 kPa and 0.000182 ± 2.6e-05 kPa
vapor or sublimation pressure (1043 K): 0.000186 ± 2.5e-05 kPa [middle of 4 runs]
vapor or sublimation pressure (1046 K): 0.000138 ± 3.1e-05 kPa and 0.000158 ± 3.2e-05 kPa
vapor or sublimation pressure (1048 K): 0.000158 ± 4.9e-05 kPa
vapor or sublimation pressure (1049 K): 0.000229 ± 3.5e-05 kPa
vapor or sublimation pressure (1050 K): 0.000182 ± 2.5e-05 kPa
vapor or sublimation pressure (1051 K): 0.000214 ± 3.1e-05 kPa
vapor or sublimation pressure (1052 K): 0.000251 ± 3.6e-05 kPa and 0.000295 ± 4e-05 kPa
vapor or sublimation pressure (1053 K): 0.000251 ± 3.5e-05 kPa
vapor or sublimation pressure (1054 K): 0.000204 ± 4.6e-05 kPa and 0.000263 ± 5.9e-05 kPa
vapor or sublimation pressure (1055 K): 0.000182 ± 4.1e-05 kPa and 0.000204 ± 4.2e-05 kPa
vapor or sublimation pressure (1057 K): 0.000204 ± 5.9e-05 kPa
vapor or sublimation pressure (1059 K): 0.000229 ± 3.6e-05 kPa
vapor or sublimation pressure (1060 K): 0.000275 ± 4.3e-05 kPa
vapor or sublimation pressure (1061 K): 0.000309 ± 4.7e-05 kPa
vapor or sublimation pressure (1062 K): 0.000389 ± 4.9e-05 kPa
vapor or sublimation pressure (1064 K): 0.000275 ± 7.6e-05 kPa and 0.000339 ± 7.9e-05 kPa
vapor or sublimation pressure (1066 K): 0.000275 ± 3e-05 kPa
vapor or sublimation pressure (1068 K): 0.000295 ± 3e-05 kPa and 0.000316 ± 3.2e-05 kPa and 0.000275 ± 2.8e-05 kPa
vapor or sublimation pressure (1069 K): 0.000407 ± 0.00011 kPa and 0.000389 ± 0.00011 kPa
vapor or sublimation pressure (1070 K): 0.000355 ± 5.5e-05 kPa
vapor or sublimation pressure (1071 K): 0.000339 ± 4.6e-05 kPa
vapor or sublimation pressure (1073 K): 0.000398 ± 6e-05 kPa
vapor or sublimation pressure (1074 K): 0.000525 ± 0.00012 kPa
vapor or sublimation pressure (1075 K): 0.000389 ± 7e-05 kPa and 0.000479 ± 7.6e-05 kPa
vapor or sublimation pressure (1077 K): 0.000363 ± 5.6e-05 kPa
vapor or sublimation pressure (1078 K): 0.000407 ± 6.6e-05 kPa
vapor or sublimation pressure (1079 K): 0.000457 ± 4.6e-05 kPa [middle of 4 runs]
vapor or sublimation pressure (1080 K): 0.000501 ± 0.00012 kPa
vapor or sublimation pressure (1082 K): 0.000457 ± 7.2e-05 kPa
vapor or sublimation pressure (1084 K): 0.000537 ± 5.7e-05 kPa and 0.000676 ± 7.1e-05 kPa
vapor or sublimation pressure (1086 K): 0.000676 ± 0.0001 kPa
vapor or sublimation pressure (1087 K): 0.000501 ± 7.7e-05 kPa
vapor or sublimation pressure (1088 K): 0.00055 ± 8e-05 kPa
vapor or sublimation pressure (1089 K): 0.000457 ± 0.00016 kPa and 0.000589 ± 0.00016 kPa
vapor or sublimation pressure (1090 K): 0.00055 ± 0.00015 kPa
vapor or sublimation pressure (1091 K): 0.000708 ± 7.3e-05 kPa
vapor or sublimation pressure (1093 K): 0.000617 ± 9.3e-05 kPa
vapor or sublimation pressure (1095 K): 0.000933 ± 0.00016 kPa
vapor or sublimation pressure (1096 K): 0.000631 ± 0.0001 kPa
vapor or sublimation pressure (1097 K): 0.000631 ± 6.3e-05 kPa and 0.000724 ± 7.3e-05 kPa and 0.000912 ± 9.2e-05 kPa
vapor or sublimation pressure (1098 K): 0.000724 ± 0.00015 kPa and 0.000575 ± 0.00014 kPa and 0.000741 ± 0.00015 kPa
vapor or sublimation pressure (1101 K): 0.000912 ± 0.00013 kPa
vapor or sublimation pressure (1102 K): 0.000724 ± 0.00013 kPa
vapor or sublimation pressure (1103 K): 0.000933 ± 0.00021 kPa
vapor or sublimation pressure (1104 K): 0.000813 ± 0.00017 kPa
vapor or sublimation pressure (1105 K): 0.000871 ± 0.00017 kPa and 0.0012 ± 0.0002 kPa
vapor or sublimation pressure (1107 K): 0.000912 ± 0.00013 kPa and 0.000813 ± 0.00012 kPa and 0.000676 ± 0.00012 kPa
vapor or sublimation pressure (1108 K): 0.0012 ± 0.00012 kPa
vapor or sublimation pressure (1110 K): 0.00117 ± 0.00022 kPa
vapor or sublimation pressure (1111 K): 0.00117 ± 0.00026 kPa
vapor or sublimation pressure (1114 K): 0.001 ± 0.00019 kPa and 0.0011 ± 0.0002 kPa and 0.00105 ± 0.0002 kPa
vapor or sublimation pressure (1115 K): 0.00135 ± 0.00025 kPa
vapor or sublimation pressure (1116 K): 0.00151 ± 0.00024 kPa
vapor or sublimation pressure (1117 K): 0.00117 ± 0.00015 kPa and 0.00102 ± 0.00014 kPa and 0.00115 ± 0.00015 kPa
vapor or sublimation pressure (1118 K): 0.0011 ± 0.00014 kPa and 0.001 ± 0.00013 kPa and 0.00158 ± 0.00019 kPa
vapor or sublimation pressure (1120 K): 0.0017 ± 0.00017 kPa
vapor or sublimation pressure (1121 K): 0.00162 ± 0.00018 kPa
vapor or sublimation pressure (1123 K): 0.00145 ± 0.00018 kPa
vapor or sublimation pressure (1124 K): 0.00115 ± 0.00016 kPa
vapor or sublimation pressure (1125 K): 0.00132 ± 0.00014 kPa and 0.00138 ± 0.00014 kPa
vapor or sublimation pressure (1126 K): 0.00129 ± 0.00014 kPa
vapor or sublimation pressure (1127 K): 0.00145 ± 0.00015 kPa and 0.00129 ± 0.00014 kPa and 0.00191 ± 0.00019 kPa
vapor or sublimation pressure (1129 K): 0.00141 ± 0.00027 kPa and 0.002 ± 0.00031 kPa and 0.00195 ± 0.00031 kPa
vapor or sublimation pressure (1134 K): 0.00174 ± 0.00024 kPa
vapor or sublimation pressure (1135 K): 0.00195 ± 0.00028 kPa
vapor or sublimation pressure (1136 K): 0.00178 ± 0.00027 kPa and 0.00166 ± 0.00027 kPa
vapor or sublimation pressure (1137 K): 0.00245 ± 0.00032 kPa
vapor or sublimation pressure (1138 K): 0.00245 ± 0.00033 kPa
vapor or sublimation pressure (1139 K): 0.00182 ± 0.00026 kPa
vapor or sublimation pressure (1145 K): 0.00224 ± 0.00036 kPa
vapor or sublimation pressure (1147 K): 0.00229 ± 0.00033 kPa
vapor or sublimation pressure (1149 K): 0.00229 ± 0.0003 kPa
